Data as given in PubChem BioAssay AID2060889 (Molecular Pharmacology Branch, DTP, NCI, 2025).

System: LG0567-F671-PDC complex spheroids viability
Experiment: Anticancer human tumor LG0567-F671-PDC patient-derived lung adenocarcinoma cell line growth inhibition [RAS]
Settings: for IC50: curve of first compound; for viability, T/C: stronger effect = lower value
Outline: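 Agents were tested in combination matrices in half-log decrements from a top concentration at or near clinical Cmax (10 microM if undetermined). Targets were multi-cell spheroids of tumour lines plus HUVEC and MSC stromal cells.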
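Also: spheroids exposed to compound for seven days before readout.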
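For IC50 in this document: luminescence signal used as a proxy for viable cells.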

NC1c2ccccc2OC12CCN(c1cnc3c(N4CCCc5ncccc54)n[nH]c3n1)CC2 (centres undefined) + C#Cc1c(F)ccc2cc(O)cc(-c3ncc4c(N5CC6CCC(C5)N6)nc(OCC56CCCN5CC(F)C6)nc4c3F)c12
IC50 (second compound 0.0316 µM): < 31.6 nM | IC50 (second compound 0.1 µM): < 31.6 nM | IC50 (second compound 0.316 µM): < 31.6 nM | IC50 (second compound 1 µM): < 31.6 nM | IC50 (second compound 3.16 µM): < 31.6 nM | IC50 (second compound 10 µM): < 31.6 nM | viability, T/C (second compound 0.0316 µM, first compound 0.0316 µM): 26.7% | viability, T/C (second compound 0.0316 µM, first compound 0.1 µM): 19.3% | viability, T/C (second compound 0.0316 µM, first compound 0.316 µM): 14.6% | viability, T/C (second compound 0.0316 µM, first compound 1 µM): 13.3% | viability, T/C (second compound 0.0316 µM, first compound 3.16 µM): 10.4% | viability, T/C (second compound 0.0316 µM, first compound 10 µM): 10.1% | viability, T/C (second compound 0.1 µM, first compound 0.0316 µM): 21% | viability, T/C (second compound 0.1 µM, first compound 0.1 µM): 14.3% | viability, T/C (second compound 0.1 µM, first compound 0.316 µM): 10.1% | viability, T/C (second compound 0.1 µM, first compound 1 µM): 8.88% | viability, T/C (second compound 0.1 µM, first compound 3.16 µM): 7.88% | viability, T/C (second compound 0.1 µM, first compound 10 µM): 6.09% | viability, T/C (second compound 0.316 µM, first compound 0.0316 µM): 13.9% | viability, T/C (second compound 0.316 µM, first compound 0.1 µM): 9.75% | viability, T/C (second compound 0.316 µM, first compound 0.316 µM): 8.65% | viability, T/C (second compound 0.316 µM, first compound 1 µM): 4.96% | viability, T/C (second compound 0.316 µM, first compound 3.16 µM): 3.75% | viability, T/C (second compound 0.316 µM, first compound 10 µM): 2.92% | viability, T/C (second compound 1 µM, first compound 0.0316 µM): 9.24% | viability, T/C (second compound 1 µM, first compound 0.1 µM): 6.71% | viability, T/C (second compound 1 µM, first compound 0.316 µM): 4% | viability, T/C (second compound 1 µM, first compound 1 µM): 3.17% | viability, T/C (second compound 1 µM, first compound 3.16 µM): 2.53% | viability, T/C (second compound 1 µM, first compound 10 µM): 2.43% | viability, T/C (second compound 3.16 µM, first compound 0.0316 µM): 6.2% | viability, T/C (second compound 3.16 µM, first compound 0.1 µM): 3.13% | viability, T/C (second compound 3.16 µM, first compound 0.316 µM): 2.43% | viability, T/C (second compound 3.16 µM, first compound 1 µM): 1.79% | viability, T/C (second compound 3.16 µM, first compound 3.16 µM): 2.13% | viability, T/C (second compound 3.16 µM, first compound 10 µM): 1.85% | viability, T/C (second compound 10 µM, first compound 0.0316 µM): 3.6% | viability, T/C (second compound 10 µM, first compound 0.1 µM): 2.14% | viability, T/C (second compound 10 µM, first compound 0.316 µM): 1.74% | viability, T/C (second compound 10 µM, first compound 1 µM): 1.65% | viability, T/C (second compound 10 µM, first compound 3.16 µM): 1.73% | viability, T/C (second compound 10 µM, first compound 10 µM): 1.28%

CC1(O)CCCC1n1c(=O)c(C(F)F)cc2cnc(NC3CCN(S(C)(=O)=O)CC3)nc21 (centres undefined) + CCn1c(-c2cccnc2C(C)OC)c2c3cc(ccc31)N1CCOC(CC(NC(=O)C(C(C)C)N(C)C(=O)C3(F)CCN(C(=O)C#CC(C)(C)N(C)C)CC3)C(=O)N3CCCC(N3)C(=O)OCC(C)(C)C2)C1
IC50 (second compound 0.000949 µM): < 31.6 nM | IC50 (second compound 0.003 µM): < 31.6 nM | IC50 (second compound 0.00949 µM): < 31.6 nM | IC50 (second compound 0.03 µM): < 31.6 nM | IC50 (second compound 0.0949 µM): < 31.6 nM | IC50 (second compound 0.3 µM): < 31.6 nM | viability, T/C (second compound 0.000949 µM, first compound 0.0316 µM): 17.6% | viability, T/C (second compound 0.000949 µM, first compound 0.1 µM): 18.2% | viability, T/C (second compound 0.000949 µM, first compound 0.316 µM): 18.2% | viability, T/C (second compound 0.000949 µM, first compound 1 µM): 21.6% | viability, T/C (second compound 0.000949 µM, first compound 3.16 µM): 22.6% | viability, T/C (second compound 0.000949 µM, first compound 10 µM): 18% | viability, T/C (second compound 0.003 µM, first compound 0.0316 µM): 17.6% | viability, T/C (second compound 0.003 µM, first compound 0.1 µM): 16.9% | viability, T/C (second compound 0.003 µM, first compound 0.316 µM): 18.5% | viability, T/C (second compound 0.003 µM, first compound 1 µM): 21.3% | viability, T/C (second compound 0.003 µM, first compound 3.16 µM): 24.5% | viability, T/C (second compound 0.003 µM, first compound 10 µM): 16.8% | viability, T/C (second compound 0.00949 µM, first compound 0.0316 µM): 15.8% | viability, T/C (second compound 0.00949 µM, first compound 0.1 µM): 16.7% | viability, T/C (second compound 0.00949 µM, first compound 0.316 µM): 20.2% | viability, T/C (second compound 0.00949 µM, first compound 1 µM): 20.4% | viability, T/C (second compound 0.00949 µM, first compound 3.16 µM): 20.7% | viability, T/C (second compound 0.00949 µM, first compound 10 µM): 16.2% | viability, T/C (second compound 0.03 µM, first compound 0.0316 µM): 14.5% | viability, T/C (second compound 0.03 µM, first compound 0.1 µM): 15.2% | viability, T/C (second compound 0.03 µM, first compound 0.316 µM): 19.5% | viability, T/C (second compound 0.03 µM, first compound 1 µM): 19.1% | viability, T/C (second compound 0.03 µM, first compound 3.16 µM): 20.2% | viability, T/C (second compound 0.03 µM, first compound 10 µM): 16.3% | viability, T/C (second compound 0.0949 µM, first compound 0.0316 µM): 13.5% | viability, T/C (second compound 0.0949 µM, first compound 0.1 µM): 15.5% | viability, T/C (second compound 0.0949 µM, first compound 0.316 µM): 16.1% | viability, T/C (second compound 0.0949 µM, first compound 1 µM): 17.1% | viability, T/C (second compound 0.0949 µM, first compound 3.16 µM): 18.6% | viability, T/C (second compound 0.0949 µM, first compound 10 µM): 15.6% | viability, T/C (second compound 0.3 µM, first compound 0.0316 µM): 11.8% | viability, T/C (second compound 0.3 µM, first compound 0.1 µM): 12.4% | viability, T/C (second compound 0.3 µM, first compound 0.316 µM): 14.1% | viability, T/C (second compound 0.3 µM, first compound 1 µM): 16.2% | viability, T/C (second compound 0.3 µM, first compound 3.16 µM): 17.4% | viability, T/C (second compound 0.3 µM, first compound 10 µM): 11.8%
